Reference: paper PMC4097363, “Trace amines inhibit insect odorant receptor function through antagonism of the co-receptor subunit” (F1000Research, 2014)
Read-outs that look alike come from different tables or passages of the source.

Tests used:
Agam\Orco + Agam\Or65 [1] = assay: Odorant and Orco agonist concentration-response, two-electrode voltage clamp in Xenopus oocytes; type: cell-based
Procedure: (§1) Follicle cells were removed by treatment with collagenase B (Boehringer Mannheim) for 2 hours at room temperature. Capped cRNA encoding each OR subunit was generated using mMessage mMachine kits (Ambion). For heteromeric ORs, 25 ng of cRNA encoding each OR subunit was injected into Stage V-VI Xenopus oocytes. For expression of Orco homomers, 50 ng of cRNA was injected. Oocytes were incubated at 18°C in Barth's saline (in mM: 88 NaCl, 1 KCl, 2.4 NaHCO 3, 0.3 CaNO 3, 0.41 CaCl 2, 0.82 MgSO 4, 15 HEPES, pH 7.6, and 150µg/ml ceftazidime) for 2–5 days prior to electrophysiological recording.
(§2) Odorant and Orco ligand induced currents were recorded under two-electrode voltage clamp, using an automated parallel electrophysiology system (OpusExpress 6000A, Molecular Devices). Oocytes were perfused with ND96 (in mM: 96 NaCl, 2 KCl, 1 CaCl 2, 1 MgCl 2, 5 HEPES, pH 7.5). Orco ligands were prepared as 50 or 100 mM stock solutions in DMSO and then diluted into ND96 on the day of the experiment. Odorants were prepared as 100 mM stock solutions in DMSO and then diluted into ND96. Unless otherwise noted, applications were for 60 sec at a flow rate of 1.0 ml/min, with extensive washing in ND96 at 4.6 ml/min between applications. Micropipettes were filled with 3 M KCl and had resistances of 0.2–2.0 MΩ. The holding potential was -70 mV. Current responses, filtered (4-pole, Bessel, low pass) at 20 Hz (-3 db) and sampled at 100 Hz, were captured and stored using OpusXpress 1.1 software (Molecular Devices).
(§3) To screen for agonist activity, oocytes were exposed to 30 sec applications of candidate compounds with 5 min washes between applications ( Figure 2A). For the concentration-response protocol ( Table 1), applications were for 20 sec at a flow rate of 1.65 ml/min. To measure antagonist activity at Orco ( Figure 2B, 2C, Figure 3, Figure 4A and Figure 5A), oocytes were exposed to two 60 sec applications of the synthetic Orco agonist OLC12 (2-((4-Ethyl-5-(4-pyridinyl)-4H-1,2,4-triazol-3-yl)sulfanyl)-N-(4-isopropylphenyl)acetamide) with 4 min washes between applications. Oocytes were then exposed to a 90 sec application of antagonist candidate, immediately followed by a 60 sec co-application of antagonist candidate and OLC12. The current response in the presence of antagonist candidate was compared to the mean of the preceding two responses to OLC12 alone and is presented as a percentage.
(§4) Initial analysis of electrophysiological data was done using Clampfit 9.1 software (Molecular Devices). Curve fitting and statistical analyses were done using Prism 5 (Graphpad). Concentration-inhibition data were fit to the equation: I = I max/(1+ (X/IC 50) ^n) where I represents the current response at a given concentration of inhibitor, X; I max is the maximal response in the absence of inhibitor; IC 50 is the concentration of inhibitor present that still allows a half maximal response from odorant; n is the apparent Hill coefficient. Concentration-response data were fit to the equation: I = I max/(1+(EC 50/X) ^n) where I represents the current response at a given concentration of odorant, X; I max is the maximal response; EC 50 is the concentration of agonist yielding a half maximal response; n is the apparent Hill coefficient. Statistical significance (p<0.05) was assessed using a two-tailed unpaired t test, an F test, or a one-way analysis of variance followed by the Dunnett's post-test, as appropriate.

Agam\Orco + Agam\Or31 = assay: Odorant concentration-response, two-electrode voltage clamp in Xenopus oocytes; type: cell-based, Anopheles gambiae
Procedure: as §1, §2
To screen for agonist activity, oocytes were exposed to 30 sec applications of candidate compounds with 5 min washes between applications ( Figure 2A). For the concentration-response protocol ( Table 1), applications were for 20 sec at a flow rate of 1.65 ml/min. […]
Initial analysis of electrophysiological data was done using Clampfit 9.1 software (Molecular Devices). […] Statistical significance (p<0.05) was assessed using a two-tailed unpaired t test, an F test, or a one-way analysis of variance followed by the Dunnett's post-test, as appropriate.

Cqui\Orco [2] = target: T1, Cqui\Orco (Culex quinquefasciatus, UniProt Q309I4); assay: Antagonism of OLC12 activation of Orco in Xenopus oocytes; type: cell-based; conditions: for inhibition at 100 µM: read-out: inhibition of the OLC12 response
T1 sequence (Q309I4 entry or part of it): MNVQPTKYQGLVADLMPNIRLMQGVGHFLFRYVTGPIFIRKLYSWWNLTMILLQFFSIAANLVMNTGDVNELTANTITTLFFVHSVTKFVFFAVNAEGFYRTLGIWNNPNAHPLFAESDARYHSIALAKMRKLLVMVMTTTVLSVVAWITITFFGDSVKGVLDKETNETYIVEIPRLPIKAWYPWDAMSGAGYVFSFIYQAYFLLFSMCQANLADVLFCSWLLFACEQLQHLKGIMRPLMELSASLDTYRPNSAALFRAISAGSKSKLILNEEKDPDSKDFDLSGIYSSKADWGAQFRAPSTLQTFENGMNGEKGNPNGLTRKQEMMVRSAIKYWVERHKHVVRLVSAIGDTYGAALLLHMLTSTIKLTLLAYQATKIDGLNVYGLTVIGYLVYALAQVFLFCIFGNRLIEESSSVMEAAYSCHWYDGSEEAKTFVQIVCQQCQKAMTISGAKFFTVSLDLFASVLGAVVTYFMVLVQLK
Procedure: as §1, §2, §3, §4

Agam\Orco + Agam\Or65 [3] = target: T2, Agam\Orco + Agam\Or65 (Anopheles gambiae, UniProt Q7QCC7); assay: Odorant and Orco agonist concentration-response, two-electrode voltage clamp in Xenopus oocytes; type: cell-based
T2 sequence (Q7QCC7 1-478): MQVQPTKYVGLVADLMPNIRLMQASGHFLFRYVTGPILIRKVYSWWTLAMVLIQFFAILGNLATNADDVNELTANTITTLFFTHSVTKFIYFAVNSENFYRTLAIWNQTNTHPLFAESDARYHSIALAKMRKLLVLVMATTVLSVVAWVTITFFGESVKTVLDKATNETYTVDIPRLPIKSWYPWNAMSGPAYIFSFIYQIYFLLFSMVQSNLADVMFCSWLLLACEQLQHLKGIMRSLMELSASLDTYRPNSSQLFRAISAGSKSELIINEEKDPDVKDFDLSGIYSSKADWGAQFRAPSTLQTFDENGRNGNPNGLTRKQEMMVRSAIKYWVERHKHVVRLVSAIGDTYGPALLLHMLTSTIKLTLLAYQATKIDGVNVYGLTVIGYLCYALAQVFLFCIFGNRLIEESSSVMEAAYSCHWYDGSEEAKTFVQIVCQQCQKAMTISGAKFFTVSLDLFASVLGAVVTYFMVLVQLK
Procedure: as §1, §2, §3, §4

Dmel\Orco + Dmel\Or35a = target: T3, Dmel\Orco + Dmel\Or35a (Drosophila melanogaster, UniProt Q9VNB5); assay: Agonist concentration-response, two-electrode voltage clamp in Xenopus oocytes; type: cell-based
T3 sequence (Q9VNB5 1-486): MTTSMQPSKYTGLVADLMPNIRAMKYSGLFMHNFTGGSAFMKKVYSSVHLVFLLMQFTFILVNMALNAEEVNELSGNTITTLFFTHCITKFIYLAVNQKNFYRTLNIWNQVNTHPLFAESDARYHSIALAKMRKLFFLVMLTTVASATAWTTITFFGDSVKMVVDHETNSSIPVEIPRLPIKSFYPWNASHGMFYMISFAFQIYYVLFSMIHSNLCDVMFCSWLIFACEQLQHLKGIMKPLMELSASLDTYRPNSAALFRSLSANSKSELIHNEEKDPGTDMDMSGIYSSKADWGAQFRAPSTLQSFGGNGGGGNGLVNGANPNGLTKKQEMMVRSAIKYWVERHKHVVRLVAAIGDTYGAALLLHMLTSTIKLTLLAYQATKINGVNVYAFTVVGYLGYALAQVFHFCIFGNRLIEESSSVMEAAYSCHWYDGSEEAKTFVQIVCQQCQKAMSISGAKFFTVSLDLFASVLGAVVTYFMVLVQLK
T3 sequence (Q9V3Q2 1-409 partner): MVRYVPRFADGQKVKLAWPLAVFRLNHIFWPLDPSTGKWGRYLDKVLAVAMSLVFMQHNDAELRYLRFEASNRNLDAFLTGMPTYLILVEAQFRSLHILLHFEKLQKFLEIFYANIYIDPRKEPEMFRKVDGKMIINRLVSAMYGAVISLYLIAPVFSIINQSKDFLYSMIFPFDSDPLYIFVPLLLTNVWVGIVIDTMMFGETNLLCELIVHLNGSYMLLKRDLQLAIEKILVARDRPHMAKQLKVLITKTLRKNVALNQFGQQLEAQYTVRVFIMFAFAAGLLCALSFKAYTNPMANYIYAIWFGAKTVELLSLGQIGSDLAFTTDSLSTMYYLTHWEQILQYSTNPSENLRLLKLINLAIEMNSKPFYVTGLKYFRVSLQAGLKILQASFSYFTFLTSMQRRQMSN
Procedure: as §1, §2, §3, §4

Cqui\Orco [4] = target: T1, Cqui\Orco; assay: as above; type: cell-based
Procedure: as §1, §2, §3, §4

Agam\Orco = target: T4, Agam\Orco (Anopheles gambiae, UniProt Q7QCC7); assay: as above; type: cell-based
T4 sequence (Q7QCC7 1-478): T2 sequence (Q7QCC7 1-478)
Procedure: as §1, §2, §3, §4

Onub\Orco + Onub\Or6 = Onub\Orco + Onub\Or6 (Ostrinia nubilalis, UniProt D3J5H5); assay: as above; type: cell-based
Sequence of Onub\Orco + Onub\Or6 (D3J5H9 entry or part of it): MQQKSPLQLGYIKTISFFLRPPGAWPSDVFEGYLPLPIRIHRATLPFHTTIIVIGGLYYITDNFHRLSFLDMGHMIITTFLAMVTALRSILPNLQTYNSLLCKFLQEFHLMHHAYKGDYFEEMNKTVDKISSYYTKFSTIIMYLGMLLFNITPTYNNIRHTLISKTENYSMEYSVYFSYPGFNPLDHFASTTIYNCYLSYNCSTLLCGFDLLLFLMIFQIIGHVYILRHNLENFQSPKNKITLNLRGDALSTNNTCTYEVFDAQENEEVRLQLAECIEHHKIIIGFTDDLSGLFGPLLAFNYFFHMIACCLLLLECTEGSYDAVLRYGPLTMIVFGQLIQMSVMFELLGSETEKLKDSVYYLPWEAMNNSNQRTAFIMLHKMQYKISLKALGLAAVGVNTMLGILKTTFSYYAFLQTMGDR
Sequence of Onub\Orco + Onub\Or6 (D3J5H5 entry or part of it): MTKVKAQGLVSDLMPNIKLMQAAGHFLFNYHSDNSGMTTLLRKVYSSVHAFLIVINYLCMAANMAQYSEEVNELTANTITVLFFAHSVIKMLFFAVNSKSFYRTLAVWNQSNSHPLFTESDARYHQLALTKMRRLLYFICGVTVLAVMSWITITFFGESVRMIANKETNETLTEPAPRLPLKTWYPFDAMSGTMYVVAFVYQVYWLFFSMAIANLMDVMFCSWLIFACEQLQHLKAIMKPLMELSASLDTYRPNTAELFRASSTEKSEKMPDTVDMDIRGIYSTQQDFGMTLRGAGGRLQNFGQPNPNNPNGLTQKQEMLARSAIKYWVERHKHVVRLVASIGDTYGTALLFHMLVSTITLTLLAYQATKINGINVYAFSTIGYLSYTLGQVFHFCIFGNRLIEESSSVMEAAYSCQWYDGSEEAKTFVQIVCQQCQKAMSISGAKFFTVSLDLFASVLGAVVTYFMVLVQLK
Procedure: as §1, §2, §3, §4

Dmel\Orco = target: T5, Dmel\Orco (Drosophila melanogaster, UniProt Q9VNB5); assay: as above; type: cell-based
T5 sequence (Q9VNB5 1-486): T3 sequence (Q9VNB5 1-486)
Procedure: as §1, §2, §3, §4

[5] = normalizing conc. 30µM geranyl acetate
[6] = Cqui\Orco activated by 30µM OLC12 (~EC5), 100µM of each amine, mean ± SEM, n = 3-10

SMILES: C=CCc1ccc(O)c(OC)c1 [Eugenol, eugenol]
- Fit Max (Agam\Orco + Agam\Or65 [1]; normalized to 1µM eugenol): 1.0 ± 0.03
- EC50 (Agam\Orco + Agam\Or65 [1]; normalizing conc. 1µM eugenol): 0.08 ± 0.01 µM
- n H (apparent Hill coefficient) (Agam\Orco + Agam\Or65 [1]; normalizing conc. 1µM eugenol): 0.9 ± 0.1

SMILES: CC(=O)OC/C=C(\C)CCC=C(C)C [Geranyl Acetate, geranyl acetate]
- Fit Max (Agam\Orco + Agam\Or31; normalized to 30µM geranyl acetate): 2.9 ± 0.3
- EC50 (Agam\Orco + Agam\Or31; [5]): 65 ± 23 µM
- n H (apparent Hill coefficient) (Agam\Orco + Agam\Or31; [5]): 1.0 ± 0.3

SMILES: NCCc1c[nH]cn1 [Histamine, histamine]
- inhibition at 100 µM (Cqui\Orco [2]): 16 ± 8%

SMILES: CCn1c(SCC(=O)Nc2ccc(C(C)C)cc2)nnc1-c1ccncc1 [OLC12, 2-((4-Ethyl-5-(4-pyridinyl)-4H-1,2,4-triazol-3-yl)sulfanyl)-N-(4-isopropylphenyl)acetamide]
- Fit Max (Agam\Orco + Agam\Or65 [3]; normalized to 30µM OLC12): 5.7 ± 0.3
- EC50 (Agam\Orco + Agam\Or65 [3]; normalizing conc. 30µM OLC12): 67 ± 6 µM
- n H (apparent Hill coefficient) (Agam\Orco + Agam\Or65 [3]; normalizing conc. 30µM OLC12): 2.0 ± 0.3
- Fit Max (Dmel\Orco + Dmel\Or35a; normalized to 10µM OLC12): 4.7 ± 0.4
- EC50 (Dmel\Orco + Dmel\Or35a; normalizing conc. 10µM OLC12): 20 ± 5 µM
- n H (apparent Hill coefficient) (Dmel\Orco + Dmel\Or35a; normalizing conc. 10µM OLC12): 1.9 ± 0.8
- Fit Max (Cqui\Orco [4]; normalized to 30µM OLC12): 48 ± 2
- EC50 (Cqui\Orco [4]; normalizing conc. 30µM OLC12): 95 ± 6 µM
- n H (apparent Hill coefficient) (Cqui\Orco [4]; normalizing conc. 30µM OLC12): 2.5 ± 0.3
- Fit Max (Agam\Orco; normalized to 30µM OLC12): 47 ± 2
- n H (apparent Hill coefficient) (Agam\Orco; normalizing conc. 30µM OLC12): 2.4 ± 0.3
- EC50 (Agam\Orco; normalizing conc. 30µM OLC12, mean ± SEM): 124 ± 9 µM
- EC50 (Onub\Orco + Onub\Or6): 100 ± 4 µM
- Fit Max (Onub\Orco + Onub\Or6; Onub\Orco + Onub\Or6, normalized to 100µM OLC12): 2.0 ± 0.1
- n H (apparent Hill coefficient) (Onub\Orco + Onub\Or6; Onub\Orco + Onub\Or6, normalizing conc. 100µM OLC12): 2.1 ± 0.2
- Fit Max (Dmel\Orco; normalized to 10µM OLC12): 36 ± 4
- EC50 (Dmel\Orco; normalizing conc. 10µM OLC12): 36 ± 4 µM
- n H (apparent Hill coefficient) (Dmel\Orco; normalizing conc. 10µM OLC12): 3.9 ± 1.9

SMILES: NCC(O)c1ccc(O)cc1 (centres unmarked) [Octopamine, octopamine]
- inhibition of the OLC12 response (Cqui\Orco [2]; [6]): inactive

SMILES: NCCc1ccc(O)c(O)c1 [dopamine]
- inhibition of the OLC12 response (Cqui\Orco [2]): inactive

SMILES: CNC[C@H](O)c1ccc(O)c(O)c1 [epinephrine]
- inhibition at 100 µM (Cqui\Orco [2]): 9 ± 3%

SMILES: CN(C)Cc1c[nH]c2ccccc12 [gramine]
- inhibition at 100 µM (Cqui\Orco [2]; [6]): 30 ± 4%

SMILES: COc1ccc2[nH]cc(CCNC(C)=O)c2c1 [melatonin]
- inhibition at 100 µM (Cqui\Orco [2]; [6]): 13 ± 1%

SMILES: NC[C@H](O)c1ccc(O)c(O)c1 [norepinephrine]
- inhibition of the OLC12 response (Cqui\Orco [2]; [6]): inactive

SMILES: NCCc1ccccc1 [phenethylamine]
- IC50 (Cqui\Orco [2]): 117 ± 12 µM
- less potent than tryptamine (IC50 ratio) (Cqui\Orco [2]; Cqui\Orco activated by 30µM OLC12): 25 fold
- inhibition at 100 µM (Cqui\Orco [2]; [6]): 41 ± 1%

SMILES: NCCc1c[nH]c2ccc(O)cc12 [serotonin]
- inhibition at 100 µM (Cqui\Orco [2]; [6]): 23 ± 3%
